# From US10322092B2, “Substance-containing vesicle, and production method therefor” (JAPAN SCIENCE AND TECHNOLOGY AGENCY, priority 2013, dated 2019)
# Tests used:
# [1] = test system: mouse colon cancer cell line C26; assay: Tumor treatment effect in C26-transplanted BALB/c mice; type: in vivo; settings: for antitumor effect (tumor volume): i.v., days 3, 7, 10, 14
# Procedure: Mouse colon cancer cell line C26-transplanted BALB/c mice (6-week-old) were divided into 8 groups of 5 each (groups 1 to 8), and each group was intravenously administered 200 μL each of CD-enclosing crosslinked vesicles (0.5 U/mL) prepared by the procedure described above, 5-FC, 5-FU or PBS, at the timing shown in Table 9 below. The 5-FC and 5-FU were prepared for 10 mg/kg (body weight) or 80 mg/kg (body weight), based on the mouse body weight. […] The tumor volume was measured by measuring the long diameter and short diameter of the tumor using a caliper, and the calculation was performed by the following formula. V=(a^2×b)/2 V: Tumor volume, a: long diameter, b: short diameter
# [2] = test system: human pulmonary carcinoma cell line A549; assay: Tumor treatment effect in A549-transplanted BALB/c nude mice; type: in vivo, mouse; settings: 200 μL i.v.; gemcitabine 5 mg/kg or matched carrier amount; 28 days; vs PBS group
# Procedure: Human pulmonary carcinoma cell line A549-transplanted BALB/c nude mice (7-week-old, for each sample) were divided into 7 groups of 5 each, among which 6 of the groups were intravenously administered samples 1 to 6 (Groups 1 to 6), respectively. The dose of each sample was 200 μL, and the concentration of each sample of the GEM-adsorbed sulfonated MSN-encapsulating vesicles (sample No. 1), the GEM-adsorbed sulfonated MSN (sample No. 3) and the gemcitabine alone (sample No. 6) was adjusted for a gemcitabine concentration of 5 mg/kg of mouse body weight, while the amounts of sulfonated MSN-encapsulating vesicles (sample No. 2) and vacant vesicles (sample No. 5) added were adjusted to be the same as the amount of GEM-adsorbed sulfonated MSN-encapsulating vesicles (sample No. 1) in terms of MSN-encapsulating vesicles, and the amount of sulfonated MSN (sample No. 4) added was adjusted to be the same as the amount of GEM-adsorbed sulfonated MSN (sample No. 3) in terms of MSN. To the remaining group there was administered 200 μL of PBS (Group 7). The tumor volumes were measured for 28 days after administration. Tumor volume was measured by measuring the long diameter and short diameter of the tumor using a caliper, and calculation was performed by the following formula. V=(a^2×b)/2 V: Tumor volume, a: long diameter, b: short diameter
# A549 cells = assay: Cytotoxic effect (Cell Counting Kit-8); type: cell-based, human; settings: 48 and 72 hours, gemcitabine concentration 0.5 μg/mL or matched carrier amount
# Procedure: Specifically, the GEM-adsorbed sulfonated MSN-encapsulating vesicles obtained by the procedure described above (sample No. 1), the sulfonated MSN-encapsulating vesicles used as material for the foregoing (Example II-3A) (sample No. 2) and the vacant vesicles used as material for the foregoing (Example II-1) (sample No. 5) were each labeled with Cy3 (labeling 25% of the number of anionic polymers), and then A549 cells were added to each well of a plate having a density of 2.2×10^3 cells/well in RPMI-1640 medium, prior to culturing at 37° C. The amount of GEM-adsorbed sulfonated MSN-encapsulating vesicles (sample No. 1) added was an amount for a gemcitabine concentration of 0.5 μg/mL in the medium, the amounts of sulfonated MSN-encapsulating vesicles (sample No. 2) and vacant vesicles (sample No. 5) added were adjusted to be the same as the amount of GEM-adsorbed sulfonated MSN-encapsulating vesicles (sample No. 1) in terms of MSN-encapsulating vesicles. […]
# Also, the cytotoxic effects of each of the samples (sample Nos. 1 to 6) at 48 hours and 72 hours after the start of culturing were evaluated by the following procedure. Specifically, using a Cell Counting Kit-8 (product of Dojindo) according to the manufacturer's instructions, reagent was added to each well and culturing was conducted for 1 hour, after which the viable cell count was measured. […]
# C26 cells = assay: Cytotoxic effect (Cell Counting Kit-8); type: cell-based, murine; settings: 48 and 72 hours, gemcitabine concentration 0.1 μg/mL or matched carrier amount
# Procedure: Also, the cytotoxic effects of each of the samples (sample Nos. 1 to 6) at 48 hours and 72 hours after the start of culturing were evaluated by the following procedure. Specifically, using a Cell Counting Kit-8 (product of Dojindo) according to the manufacturer's instructions, reagent was added to each well and culturing was conducted for 1 hour, after which the viable cell count was measured. The results after 48 hours of culturing are shown in FIG. 34(a), and the results after 72 hours of culturing are shown in FIG. 34(b).
# In addition, using C26 cells (a murine colon adenocarcinoma cell line) instead of A549 cells, the cell uptake property and cytotoxic effect were evaluated by the same procedure described above, except for the points mentioned below. […]
# [3] = Viscosity of FITC-Dex solutions (rotating rheometer); type: physicochemical
# Procedure: The viscosity was measured using a rotating rheometer (Physica MCR302, product of Anton Paar).
# [4] = dose of 10 mg/kg (5-FC or 5-FU)
# [5] = dose of 80 mg/kg (5-FC or 5-FU)
Molecule,"antitumor effect (tumor volume) [1, 4]","antitumor effect (tumor volume) [1, 5]",viscosity ([3]; concentration 10 mg/mL) [Pa·s],viscosity ([3]; concentration 4 mg/mL) [Pa·s],also measured
"Nc1nc(=O)[nH]cc1F [Example 5-FC, 5-fluorocytosine]",no significant antitumor effect or toxicity,no significant antitumor effect or toxicity,–,–,–
"O=c1[nH]cc(F)c(=O)[nH]1 [Example 5-FU, 5-fluorouracil]",very weak antitumor effect,antitumor effect that shrunk the tumor,–,–,"individuals died by the 28th day after administration ([1]; dose of 10 mg/kg, 5 mice per group): 3; survival ([1]; dose of 80 mg/kg, 5 mice per group, up to 28 days): all of the individuals died by the 17th day"
"Nc1ccn([C@@H]2O[C@H](CO)[C@@H](O)C2(F)F)c(=O)n1 [gemcitabine alone, Gemcitabine]",–,–,–,–,antitumor effect (tumor volume) [2]: no significant antitumor effect was seen; cytotoxic effect (viable cell count) (A549 cells): powerful cytotoxic effect; cytotoxic effect (viable cell count) (C26 cells): powerful cytotoxic effect
fluorescein isothiocyanate-dextran [FITC-Dex 4000],–,–,0.0097,–,–
fluorescein isothiocyanate-dextran [FITC-Dex 10000],–,–,0.1271,0.0504,–
fluorescein isothiocyanate-dextran [FITC-Dex 40000],–,–,0.1377,0.0513,viscosity ([3]; concentration 50 mg/mL): 0.5481 Pa·s
